Here are results for 17 compounds from US10336701B2, “Pyridin-2-one derivatives of formula (II) useful as EP3 receptor antagonists” (Janssen Pharmaceutica NV, priority 2017, dated 2019).

As a reminder, the Ki is the dissociation constant of the complex between target and ligand, obtained from inhibition or displacement. By IC50 is commonly meant the concentration that inhibits the measured activity by half.

The test system of one assay is Sprague Dawley rats. Kind of assay: IV infused EP3 antagonists on circulating insulin and glucose in the sulprostone infusion IVGTT model. In kind it is in vivo, rat. To be noted: SD rats, IV bolus plus infusion at 7×Ki and 10×Ki (targeted). From the text:
Biological Example 3—IV Infused EP3 Antagonists on Circulating Insulin and Glucose in the Sulprostone Infusion IVGTT Model
Jugular vein and carotid artery cannulated male Sprague Dawley rats (˜250 g, available from Charles River) were housed one rat per suspended cage in a temperature-controlled room with 12-hour light/dark cycle. The rats were allowed ad libitum access to water and maintained on a regular diet. Animals were acclimated for minimum 5 days prior to the start of the experiment. Experimental procedures were carried out in accordance with institutional standards for animal care and were approved by the institute's animal care and use committee.
A blood sample for insulin and blood chemistry was collected at 20 min (t=−20) prior to the start of dosing with sulprostone and/or test compound (EP3 antagonist). […]
Blood samples from all animals were collected into Heparin treated tubes. Background was measured via a glucometer at the 0 and 2 min time points to ensure that the animal received the glucose bolus. Plasma insulin was measured via a Meso Scale Discovery metabolic assay (available from Meso Scale). Plasma glucose, free fatty acid (FFA), triglycerides, cholesterol and ketones were measured on an OLYMPUS AU400E chemistry analyzer. Observations on animal health were recorded throughout the procedure. […]

The target of assay [1] is T1, EP3 receptor (Homo sapiens, UniProt P43115).
T1 construct: purchased Millipore HTS092M
T1 sequence (P43115 1-390): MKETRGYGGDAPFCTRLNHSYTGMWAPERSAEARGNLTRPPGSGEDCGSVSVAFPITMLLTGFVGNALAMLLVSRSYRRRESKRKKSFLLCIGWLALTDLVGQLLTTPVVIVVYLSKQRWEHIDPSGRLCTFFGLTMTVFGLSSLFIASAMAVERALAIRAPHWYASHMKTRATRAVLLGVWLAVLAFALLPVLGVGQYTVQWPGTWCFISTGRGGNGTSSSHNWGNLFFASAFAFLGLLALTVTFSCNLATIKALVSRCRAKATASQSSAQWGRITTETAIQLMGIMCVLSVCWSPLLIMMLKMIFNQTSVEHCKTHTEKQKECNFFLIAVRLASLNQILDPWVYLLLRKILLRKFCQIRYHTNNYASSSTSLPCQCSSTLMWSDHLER
Kind of assay: [3H]-PGE2 binding assay (EP3 competition binding). To be noted: read-out: [3H]-PGE2 Binding Ki. The method, boiled down:
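Scintillation-bead competition binding with EP3 membranes (2 μg/well), 2 nM [3H]-PGE2, 0.1% DMSO, in 50 mM Tris, 10 mM MgCl2, 1 mM EDTA, pH 7.4.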

Assay [2] deals with T1, EP3 receptor. Kind of assay: CHO cell cAMP assay (forskolin and sulprostone stimulated, HTRF). In kind it is cell-based. The settings on record: CHO cells; sulprostone 700 nM (EC80) and FSK 2 μM (EC70), 37° C. for 30 minutes; read-out: CHO_cAMP IC50. A general note: Changes in cAMP serve as a functional read-out for many G protein-coupled receptors.

Consider `CC(C)C(/C=C1\OC(=O)NC1=O)c1ccc(-c2ccc3cccc(F)c3c2)[nH]c1=O` (racemic) [Compound #62, (Z)-5-(2-(6-(8-fluoronaphthalen-2-yl)-2-oxo-1,2-dihydropyridin-3-yl)-3-methylbutylidene)oxazolidine-2,4-dione], for which the “reversal of suppression of glucose stimulate insulin secretion (GSIS) by sulprostone” value in the assay with Sprague Dawley rats is reported as “reverse suppression of glucose stimulate insulin secretion (GSIS) by sulprostone”.
For the compound `CC(C)C(/C=C1\OC(=O)NC1=O)c1ccc(-c2cc(F)c3cnn(C(C)C)c3c2)[nH]c1=O` (stereo not drawn) [compound 122, (Z)-5-(2-(6-(4-fluoro-1-isopropyl-1H-indazol-6-yl)-2-oxo-1,2-dihydropyridin-3-yl)-3-methylbutylidene)oxazolidine-2,4-dione], the Ki on EP3 receptor [1] is 32 nM. In addition, the IC50 at EP3 receptor [2] is 278 nM.
Taken in the same sequence, the figures for `CC(C)C(/C=C1\OC(=O)NC1=O)c1ccc(-c2ccc3c(c2)N(C)CCO3)[nH]c1=O` (stereo not drawn) [compound 108, (Z)-5-(3-methyl-2-(6-(4-methyl-3,4-dihydro-2H-benzo[b][1,4]oxazin-6-yl)-2-oxo-1,2-dihydropyridin-3-yl)butylidene)oxazolidine-2,4-dione] were 171 nM and 602 nM.
As to `CC(C)/C(Cc1ccc(-c2ccc3cccc(F)c3c2)[nH]c1=O)=C1/OC(=O)NC1=O` [Compound #306, (E)-5-(1-(6-(8-fluoronaphthalen-2-yl)-2-oxo-1,2-dihydropyridin-3-yl)-3-methylbutan-2-ylidene)oxazolidine-2,4-dione], the Ki on EP3 receptor [1] was 54 nM. The IC50 on EP3 receptor [2] stood at 111 nM.
For the compound `CC(C)C(/C=C1/C(=O)NC(=O)N1C)c1ccc(-c2ccc3cccc(F)c3c2)[nH]c1=O` (stereo not drawn) [Compound #80, 5-(2-(6-(8-fluoronaphthalen-2-yl)-2-oxo-1,2-dihydropyridin-3-yl)-3-methylbutylidene)-1-methylimidazolidine-2,4-dione], the Ki at EP3 receptor [1] was 6 nM. In addition, the IC50 at EP3 receptor [2] came out at 11 nM.
The like results for `Cc1cc(C(c2ncc[nH]2)C(C)C)c(=O)[nH]c1-c1ccc2cccc(F)c2c1` (stereo not drawn) [compound 82, 3-(1-(1H-imidazol-2-yl)-2-methylpropyl)-6-(8-fluoronaphthalen-2-yl)-5-methylpyridin-2(1H)-one] were, in that order, 23 nM and 137 nM.
With `CCn1cc2c(C)cc(-c3ccc(C(/C=C4\OC(=O)NC4=O)C(C)C)c(=O)[nH]3)cc2n1` (stereo not drawn) [compound 98, (Z)-5-(2-(6-(2-ethyl-4-methyl-2H-indazol-6-yl)-2-oxo-1,2-dihydropyridin-3-yl)-3-methylbutylidene)oxazolidine-2,4-dione], the Ki on EP3 receptor [1] is > 10000 nM. Moreover, the IC50 at EP3 receptor [2] is > 20000 nM.
Taken in the same sequence, the figures for `CC1(c2ccc(-c3ccc4ccccc4c3)[nH]c2=O)Cn2cnnc2N1` (stereo not drawn) [compound 167, 3-[6-methyl-5H,6H,7H-imidazo[2,1-c][1,2,4]triazol-6-yl]-6-(naphthalen-2-yl)-1,2-dihydropyridin-2-one] were 151 nM and 779 nM.
As for `Cc1cc(C(CC2OC(=O)NC2=O)C(C)C)c(=O)[nH]c1-c1ccc2cccc(F)c2c1` (stereo not drawn) [Compound #112], at EP3 receptor [1], the Ki was 57 nM. Moreover, the IC50 at EP3 receptor [2] was determined as 212 nM.
Take `CCN1CCOc2ccc(-c3ccc(C(CC)(CC)CC4OC(=O)NC4=O)c(=O)[nH]3)cc21` (stereo not drawn) [compound 44, 5-(2-ethyl-2-(6-(4-ethyl-3,4-dihydro-2H-benzo[b][1,4]oxazin-6-yl)-2-oxo-1,2-dihydropyridin-3-yl)butyl)oxazolidine-2,4-dione]: the Ki on EP3 receptor [1] was 93 nM. The IC50 at EP3 receptor [2] was determined as 505 nM.
With `CCn1ncc2c(F)cc(-c3ccc(C(C(C)C)N4CCS(=O)(=O)CC4)c(=O)[nH]3)cc21` (stereo not drawn) [Compound #168, 3-(1-(1,1-dioxidothiomorpholino)-2-methylpropyl)-6-(1-ethyl-4-fluoro-1H-indazol-6-yl)pyridin-2(1H)-one], the Ki on EP3 receptor [1] is 26 nM. Also, at EP3 receptor [2], the IC50 came out at 130 nM.
Taken in the same sequence, the figures for `CC(C)C(CC1OC(=O)NC1=O)c1ccc(-c2ccc3cccc(F)c3c2)[nH]c1=O` (stereo not drawn) [compound 77] were 16 nM and 60 nM.
Taken in the same sequence, the figures for `CCn1ncc2c(F)cc(-c3ccc(C(Cc4noc(=O)[nH]4)C(C)C)c(=O)[nH]3)cc21` (stereo not drawn) [Compound #99, 3-(2-(6-(1-ethyl-4-fluoro-1H-indazol-6-yl)-2-oxo-1,2-dihydropyridin-3-yl)-3-methylbutyl)-1,2,4-oxadiazol-5(4H)-one] were 921 nM and 4880 nM.
Taken in the same sequence, the figures for `CO/N=C1\NC(=O)C(c2ccc(-c3ccc4cccc(F)c4c3)[nH]c2=O)(C(C)C)N1` (stereo not drawn) [compound 237, (Z)-6-(8-fluoronaphthalen-2-yl)-3-(4-isopropyl-2-(methoxyimino)-5-oxoimidazolidin-4-yl)pyridin-2(1H)-one] were 4 nM and 12 nM.
`O=C1NC(=O)C(CC2(c3ccc(-c4ccc5cccc(F)c5c4)[nH]c3=O)CCCC2)O1` (stereo not drawn) [compound 7, 5-((1-(6-(8-fluoronaphthalen-2-yl)-2-oxo-1,2-dihydropyridin-3-yl)cyclopentyl)methyl) oxazolidine-2,4-dione]: the Ki at EP3 receptor [1] worked out at 39 nM. Besides, the IC50 on EP3 receptor [2] is 149 nM.
For `CC(C)S(=O)(=O)N1CCC(c2ccc(-c3ccc4ccccc4c3)[nH]c2=O)CC1` [compound 200, 3-(1-(isopropylsulfonyl)piperidin-4-yl)-6-(naphthalen-2-yl)pyridin-2(1H)-one], the Ki at EP3 receptor [1] turned out to be 38 nM. The IC50 on EP3 receptor [2] worked out at 1250 nM.
The like results for `CC(C)C(C)(C(N)=O)c1ccc(-c2ccc3ccccc3c2)[nH]c1=O` (stereo not drawn) [compound 232, 2,3-dimethyl-2-(6-(naphthalen-2-yl)-2-oxo-1,2-dihydropyridin-3-yl)butanamide] were, in that order, 125 nM and 1630 nM.
